Data set [1] has as its system Ouabain-induced ventricular arrhythmia. The data set can be described thus: Effectiveness against ouabain-induced ventricular arrhythmia in anesthetized dogs. The class given is in vivo, dog. The settings on record: for minimal effective dose: Canis lupus familiaris, iv; for minimal effective dose / No. of effective cases/No. of experiments: dog. The procedure: Ventricular arrhythmia in an anesthetized dog was induced by an intravenous administration of ouabain. An initial i.v. dose of 40 μg/kg was administered, then 20 μg/kg i.v. 30 minutes later and then additional 10 μg/kg i.v. every 15 minutes until ventricular arrhythmia developed. […] The test compound, which was rac.-2-amino-N-(2,6-dimethylphenyl)-N-[3-(3-pyridinyl)propyl]propanamide dihydrochloride, dissolved in saline solution, was injected into the femoral vein 10 min. after the development of the arrhythmia. The dose schedule for the test compound was 1, 3 and 10 mg/kg i.v. in this order at 15 minute intervals until the arrhythmia was reversed to sinus rhythm.
Effectiveness against Ouabain-induced
Ventricular Arrhythmia in Dogs
MED: Minimum effective dose was measured by successive injections of 1, 3
and 10 mg/kg into the femoral vein at 15 minuteintervals until
ouabaininduced arrhythmia was reversed to the sinus rhythm.

Another data set deals with Thromboxane Synthase. The data set can be described thus: Thromboxane synthase inhibition (Table III, enzyme source not stated). The settings on record: platelet species not stated, read-out: Thromboxane Synthase Inh. IC50. The class given is biochemical. Here is the method: (§1) Rac.-2-amino-N-(2,6-dimethylphenyl)-N-[3-(3-pyridinyl)propyl]propanamide dihydrochloride was tested for its inhibitory effects on thromboxane A2 synthetase (washed rabbit platelet) activity in vitro.
(§2) Therefore, rac.-2-amino-N-(2,6-dimethylphenyl)-N-[3-(3-pyridinyl)propyl]propanamide dihydrochloride is useful in the treatment of ischemic heart disease.

Data set [2] has as its system Arachidonic Acid (AA) induced aggregation of human platelet rich plasma. Description: Inhibition of arachidonic acid (AA) induced platelet aggregation. Conditions: 2 min, human PRP, AA 0.3 to 1 mM. The class given is cell-based. The procedure: (§3) Human platelet rich plasma (PRP) and platelet poor plasma (PPP) are prepared from 0.38% sodium citrate treated blood. PRP is obtained by centrifugation at 180×g for 10 minutes and PPP by centrifuging the remaining red cell layer 1000×g for 10 minutes. Aggregation is determined by the turbidometric method of Born G.V.R., Nature, 194, 927, (1962), and monitored at 37° C. with a Payton dual channel module with stirring speed set at 900 rpm. PRP (0.45 ml) is added to a siliconized cuvette and prewarmed to 37° C. Zero and 100% light transmission are set with PRP and PPP, respectively. AA (50 μl) is added to the stirring PRP one minute after the addition of 5 μl of the compound to be tested. A threshold dose (0.3 to 1 mM) of AA is chosen which causes maximum aggregation at about 2 minutes. […] Activities of compounds of the invention in this test can be found in Table III below.

Data set [3] concerns Platelet Activating Factor (PAF) induced aggregation of human platelet rich plasma. Description: Inhibition of platelet activating factor (PAF) induced platelet aggregation. It is filed as cell-based. Conditions: human PRP, PAF 1 μM, first phase response. The procedure:
as §3, with “which was cited above,” for “G.V.R., Nature, 194, 927, (1962),”, “PAF” for “AA”, “PRP prepared from citrated human blood will aggregate when stirred in the presence of PAF giving a two phase response. The first phase is caused by PAF and the second phase is caused by the release of arachidonic acid. PAF is used at 1 μM and only the first phase response, about 30% aggregation, is evaluated. The first phase is resistant to indomethacin. 50% inhibition of the 1st phase PAF response is calculated from” for “A threshold”, “curves and represented as IC50 values.” for “(0.3 to 1 mM) of AA is chosen which causes maximum aggregation at about 2 minutes.”

Data set [4] concerns ventricular arrhythmias induced by 2-stage ligation of the coronary artery. The data set can be described thus: Ventricular arrhythmias induced by 2-stage ligation of the coronary artery (Harris dogs). The class given is in vivo, dog (mongrel). The settings on record: for incidence of ventricular premature contractions and conversion to sinus rhythm: n=5. The procedure: (2) Test for effectiveness against ventricular arrhythmias induced by 2-stage ligation of the coronary artery in dogs (Harris dogs)
Mongrel dogs weighing between 8-14 kg were anesthetized using 30 mg/kg i.v. of sodium pentobarbital. They were artificially ventilated with room air. After thoracotomy via the fourth left intercostal space, the pericardium was opened. The left anterior descending artery was dissected free for a few millimeters near the distal edge of the […] and ligated there in two stages being separated by an interval of 30 minutes. […] Electrograms were monitored continuously throughout the experiment and the number of ventricular and sinus beats (expressed per minute) was counted for 5 minutes every 15 or 30 minutes after p.o. administration of compound and the percentage of ventricular premature beats were calculated.

Data set [5] concerns the target T1, thromboxane A2 synthetase (Oryctolagus cuniculus, UniProt G1TAZ9).
T1 construct: Using washed rabbit platelets as the enzyme sources; from tissue; host or cells: washed rabbit platelets
T1 sequence (G1TAZ9 1-530): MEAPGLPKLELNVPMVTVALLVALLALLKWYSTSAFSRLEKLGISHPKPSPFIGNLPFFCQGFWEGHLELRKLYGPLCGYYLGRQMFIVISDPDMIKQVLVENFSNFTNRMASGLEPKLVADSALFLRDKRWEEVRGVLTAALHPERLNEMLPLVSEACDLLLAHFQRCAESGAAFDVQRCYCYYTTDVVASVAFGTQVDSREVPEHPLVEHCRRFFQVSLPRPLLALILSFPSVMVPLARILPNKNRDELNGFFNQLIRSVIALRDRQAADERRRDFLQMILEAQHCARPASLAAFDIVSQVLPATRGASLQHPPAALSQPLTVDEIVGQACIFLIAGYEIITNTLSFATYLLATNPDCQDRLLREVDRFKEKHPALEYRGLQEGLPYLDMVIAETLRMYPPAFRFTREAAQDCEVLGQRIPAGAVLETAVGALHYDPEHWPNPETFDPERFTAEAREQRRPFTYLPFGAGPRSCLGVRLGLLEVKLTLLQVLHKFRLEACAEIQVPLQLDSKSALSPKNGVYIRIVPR
The data set can be described thus: Thromboxane A2 synthetase inhibition, washed rabbit platelets, C^14-arachidonic acid substrate. The class given is biochemical. Conditions: in vitro. Here is the method:
as §1, §2

The target of data set [6] is T2, thromboxane A2 synthetase (Homo sapiens, UniProt P24557).
T2 construct: thromboxane A2 synthetase activity of human platelets; from tissue; host or cells: human platelets
T2 sequence (P24557 1-533): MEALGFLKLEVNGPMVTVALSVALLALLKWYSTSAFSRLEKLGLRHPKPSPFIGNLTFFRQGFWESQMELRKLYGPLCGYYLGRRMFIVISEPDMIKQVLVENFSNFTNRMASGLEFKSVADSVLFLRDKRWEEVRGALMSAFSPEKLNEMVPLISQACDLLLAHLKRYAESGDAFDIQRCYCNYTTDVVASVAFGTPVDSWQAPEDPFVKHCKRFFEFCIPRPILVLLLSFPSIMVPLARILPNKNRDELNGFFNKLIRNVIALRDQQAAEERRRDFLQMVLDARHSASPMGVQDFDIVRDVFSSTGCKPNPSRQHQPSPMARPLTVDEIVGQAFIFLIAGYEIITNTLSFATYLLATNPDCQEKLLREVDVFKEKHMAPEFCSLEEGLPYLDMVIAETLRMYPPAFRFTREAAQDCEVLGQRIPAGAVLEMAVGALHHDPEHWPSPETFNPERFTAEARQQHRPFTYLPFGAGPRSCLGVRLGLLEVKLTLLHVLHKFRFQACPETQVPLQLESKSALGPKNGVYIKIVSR
The data set can be described thus: Thromboxane A2 synthetase inhibition, human platelets, PG H2 substrate. The settings on record: PG H2 as the substrate, read-out: thromboxane A2 synthetase inhibition IC50 range. It is filed as biochemical.
Excerpt: as §2

For data set [7], the system named is collagen-induced rabbit platelet aggregation. The data set can be described thus: Ex vivo inhibition of collagen-induced rabbit platelet aggregation by plasma of orally treated rats. It is filed as in vivo, rabbit platelets; plasma of treated rats. The settings on record: for collagen-induced platelet aggregation, % of control: 4 rats, 1 hour after dosing, collagen 3 μg/ml, control = 100%. The procedure: (4) Ex vivo experiments: Inhibition of rabbit platelet aggregation induced by collagen by the plasma of rats treated with oral rac.-2-amino-N-(2,6-dimethylphenyl)-N-[3-(3-pyridinyl)propyl]propanamide dihydrochloride
The antiplatelet aggregatory activity of rac.-2-amino-N-(2,6-dimethylphenyl)-N-[3-(3-pyridinyl) propyl]propanamide dihydrochloride was observed ex vivo in rats.
control. The control = 100% platelet aggregation.
An aliquot (125 μl) of the platelet free plasma of the rats which had
been orally treated with compound for 1 hour was added to the platelet
rich plasma (125 μl) of the rabbit. Collagen (3 μg/ml) induced
platelet aggregation was measured turbidimetrically.

[8] abbreviates: read-out: Ouabain Induced Arrhythmias MED, Table III.

Read-outs that look alike come from different tables or passages of the source. A value given as a limit tells only on which side of the number the result lay.

What is called IC50 is the point on the concentration scale where inhibition reaches its midpoint. Regarding `Cc1cccc(C)c1N(CCCCc1cccnc1)C(=O)C(C)N` (centres unmarked), the “Ouabain Induced Arrhythmias: number converted/number tested” value in data set [1] (converted at 3 mg/kg IV) was 1/3. In addition, the values for the half-maximal inhibitory concentration (IC50) (on Thromboxane Synthase; in data set [2]; in data set [3]) were 10 to 100 µM, more than 10 µM and more than 10 µM, respectively.
Consider `Cc1cccc(C)c1N(CCCCCCc1cccnc1)C(=O)C(C)N` (centres unmarked), for which the minimal effective dose in data set [1] (setting [8]) was 8.3 ± 1.8 mg/kg. Moreover, the IC50 at Thromboxane Synthase was 10 to 100 µM.
Take `Cc1cccc(C)c1N(CCCCn1ccnc1)C(=O)C(C)N` (centres unmarked): in data set [1] (setting [8]), the minimal effective dose was more than 10 mg/kg. Also, the IC50 is approximately 10 µM at Thromboxane Synthase, more than 10 µM in data set [2] and more than 10 µM in data set [3].
For `Cc1cccc(C)c1N(CCCc1cccnc1)C(=O)Cn1ccnc1`, the “Ouabain Induced Arrhythmias: number dead/number tested” value in data set [1] (dead at 1 mg/kg IV) is given as 1/2. For the same molecule, the half-inhibitory concentration (IC50) on Thromboxane Synthase was 0.1 to 1 µM; in data set [2], more than 10 µM; in data set [3], 1 µM.
With `Cc1cccc(C)c1N(CCCc1cccnc1)C(=O)Cn1ccnc1C`, the minimal effective dose in data set [1] (setting [8]) was more than 10 mg/kg. The results for the IC50 (on Thromboxane Synthase; in data set [2]; in data set [3]) were 0.1 to 1 µM, more than 10 µM and more than 10 µM, respectively.
`Cc1cccc(C)c1N(CCn1ccnc1)C(=O)CCCc1cccnc1`: the “Ouabain Induced Arrhythmias: number dead/number tested” value in data set [1] (dead at 3 mg/kg IV) is 1/2. Also, the results for the half-maximal inhibitory concentration (IC50) (on Thromboxane Synthase; in data set [2]; in data set [3]) were 0.1 to 1 µM, 0.5 µM and 0.5 µM, respectively.
As for `Cc1ccc(N(CCCc2cccnc2)C(=O)C(C)N)cc1` (racemic) [H H CH3, rac.-2-amino-N-(4-methylphenyl)-N-[3-(3-pyridinyl)propyl]propanamide], in data set [1] (setting [8]), the minimal effective dose is more than 10 mg/kg. The IC50 on Thromboxane Synthase lay within 10 to 100 µM.
Taken in the same sequence, the figures for `CC(N)C(=O)N(CCCc1cccnc1)c1ccccc1` (racemic) [H H H, rac.-2-amino-N-phenyl-N-[3-(3-pyridinyl)propyl]propanamide] were more than 10 mg/kg and 10 to 100 µM.
In general, ED50 refers to the midpoint of the dose-response relation. Regarding `Cc1cccc(C)c1N(CCCc1cccnc1)C(=O)C(C)N.Cl.Cl` (racemic) [rac.-2-amino-N-(2,6-dimethylphenyl)-N-[3-(3-pyridinyl)propyl]propanamide dihydrochloride], the “No. of effective cases/No. of experiments” value in data set [1] (1 mg/kg i.v.) is on record as 0/4; in data set [1] (3 mg/kg i.v.) it was 4/5; in data set [1] (10 mg/kg i.v.), 1/1. Besides, the minimal effective dose was found to be 4.4 ± 1.4 mg/kg in data set [1] (0.25 h, successive injections of 1, 3 and 10 mg/kg at 15 minute intervals, read-out: MED (minimum effective dose), Table I); 4.4 ± 1.4 mg/kg in data set [1] (setting [8]). The “onset of the antiarrhythmic effects” value in data set [4] (30 mg/kg p.o.) is “approximately 1 hour”; in data set [4] (100 mg/kg p.o.) it was approximately 2 h. Also, the “time of maximum effect after dosing” value was found to be 5 h in data set [4] (30 mg/kg p.o.) and 2.5 h in data set [4] (100 mg/kg p.o.). Besides, the “percentage of ventricular premature beats at maximum effect” value amounted to 13±7.9% in data set [4] (30 mg/kg p.o., 5 hours after dosing, from 94±1.5%, p<0.01) and 10±9.5% in data set [4] (100 mg/kg p.o., 2.5 hours after dosing, from 94±0.5%, p<0.05). Besides, the “incidence of ventricular premature contractions and conversion to sinus rhythm” value in data set [4] (30 mg/kg p.o.) was “dramatically decreased the incidence of ventricular premature contractions (VPCs) and converted ventricular arrhythmias to sinus rhythm”; in data set [4] (100 mg/kg p.o.) it was “dramatically decreased the incidence of ventricular premature contractions (VPCs) and converted ventricular arrhythmias to sinus rhythm”. For the same molecule, the “duration of the antiarrhythmic effects after dosing” value in data set [4] (30 and 100 mg/kg p.o.) is “at least 6 hours”. The IC50 is 38 µM in data set [5]; 1 to 10 µM in data set [6]; 10 to 100 µM at Thromboxane Synthase; 5 µM in data set [2]; 20 µM in data set [3]. Also, the “collagen-induced platelet aggregation, % of control” value in data set [7] (50 mg/kg p.o.) is recorded as 77.1 ± 11.7 % of control; in data set [7] (100 mg/kg p.o., p < 0.01) it was 64.8 ± 6.2 % of control; in data set [7] (200 mg/kg p.o., p < 0.01) it was 40.3 ± 14.0 % of control. For the same molecule, the ED50 in data set [7] (Rattus norvegicus, Platelet, po, plasma of rats treated orally for 1 hour, read-out: ED50, inhibition of collagen-induced rabbit platelet aggregation (95% confidence limit)) was found to be 123 mg/kg. Also, the “ED50, inhibition of collagen-induced rabbit platelet aggregation (95% confidence limit)” value in data set [7] (plasma of rats treated orally for 1 hour, dihydrochloride, 60 min) is 123 (85-274) mg/kg p.o.
`Cc1cccc(C)c1NC(=O)C(C)N` (centres unmarked) [reference compound]: the minimal effective dose in data set [1] (setting [8]) is 15.5 ± 3.4 mg/kg. The IC50 in data set [2] and in data set [3] was more than 100 µM throughout.

These data come from patent publication US4696930A, “N-(heteroarylalkyl)acylanilide derivatives as antiarrhythmic agents” (Hoffmann-La Roche Inc., priority 1985, dated 1987).
